Experimental data published in the kinase profiling compilation of Christmann-Franck et al. (2016).

Assays:
Test in all cases: KINOMEscan competition binding
Settings in all cases: compound 1.0 µM
NEK1 (human) = NEK1 (human) (UniProt Q96PY6)
SGK3 (human) = SGK3 (human) (UniProt Q96BR1)
CSK (human) = CSK (human) (UniProt P41240)
ACVRL1 (human) = ACVRL1 (human) (UniProt P37023)
ROCK1 (human) = ROCK1 (human) (UniProt Q13464)
DYRK1B (human) = DYRK1B (human) (UniProt Q9Y463)
SRC (human) = SRC (human) (UniProt P12931)
PKN1 (human) = PKN1 (human) (UniProt Q16512)
CSNK1E (human) = CSNK1E (human) (UniProt P49674)
MAPK6 (human) = MAPK6 (human) (UniProt Q16659)
PRKX (human) = PRKX (human) (UniProt P51817)
TGFBR1 (human) = TGFBR1 (human) (UniProt P36897)
FYN (human) = FYN (human) (UniProt P06241)
MAP4K2 (human) = MAP4K2 (human) (UniProt Q12851)
HCK (human) = HCK (human) (UniProt P08631)
ERBB2 (human) = ERBB2 (human) (UniProt P04626)
GSK3B (human) = GSK3B (human) (UniProt P49841)
LYN (human) = LYN (human) (UniProt P07948)
CAMK2A (human) = CAMK2A (human) (UniProt Q9UQM7)
[1] = test system: EGFR (human), P00533 [T790M]
RPS6KB1 (human) = RPS6KB1 (human) (UniProt P23443)
BRSK1 (human) = BRSK1 (human) (UniProt Q8TDC3)
FRK (human) = FRK (human) (UniProt P42685)
OXSR1 (human) = OXSR1 (human) (UniProt O95747)
CSNK1G1 (human) = CSNK1G1 (human) (UniProt Q9HCP0)
CAMK1D (human) = CAMK1D (human) (UniProt Q8IU85)
PLK2 (human) = PLK2 (human) (UniProt Q9NYY3)
NEK4 (human) = NEK4 (human) (UniProt P51957)
CDK17 (human) = CDK17 (human) (UniProt Q00537)
MAPK14 (human) = MAPK14 (human) (UniProt Q16539)
CDK14 (human) = CDK14 (human) (UniProt O94921)
[2] = test system: EIF2AK4 KD2 (human), Q9P2K8 [S808G]
EPHA6 (human) = EPHA6 (human) (UniProt Q9UF33)
NEK11 (human) = NEK11 (human) (UniProt Q8NG66)
MAP3K11 (human) = MAP3K11 (human) (UniProt Q16584)
TLK1 (human) = TLK1 (human) (UniProt Q9UKI8)
CRK2 (P.falciparum) = CRK2 (P.falciparum) (UniProt P61075)
NEK7 (human) = NEK7 (human) (UniProt Q8TDX7)
EPHA3 (human) = EPHA3 (human) (UniProt P29320)
[3] = test system: EGFR (human), P00533 [L861Q]
MAP2K1 (human) = MAP2K1 (human) (UniProt Q02750)
YSK4 (human) = YSK4 (human) (UniProt Q56UN5)
HIPK1 (human) = HIPK1 (human) (UniProt Q86Z02)
Chain of HIPK1 (human) (Q86Z02 whole entry, looked up): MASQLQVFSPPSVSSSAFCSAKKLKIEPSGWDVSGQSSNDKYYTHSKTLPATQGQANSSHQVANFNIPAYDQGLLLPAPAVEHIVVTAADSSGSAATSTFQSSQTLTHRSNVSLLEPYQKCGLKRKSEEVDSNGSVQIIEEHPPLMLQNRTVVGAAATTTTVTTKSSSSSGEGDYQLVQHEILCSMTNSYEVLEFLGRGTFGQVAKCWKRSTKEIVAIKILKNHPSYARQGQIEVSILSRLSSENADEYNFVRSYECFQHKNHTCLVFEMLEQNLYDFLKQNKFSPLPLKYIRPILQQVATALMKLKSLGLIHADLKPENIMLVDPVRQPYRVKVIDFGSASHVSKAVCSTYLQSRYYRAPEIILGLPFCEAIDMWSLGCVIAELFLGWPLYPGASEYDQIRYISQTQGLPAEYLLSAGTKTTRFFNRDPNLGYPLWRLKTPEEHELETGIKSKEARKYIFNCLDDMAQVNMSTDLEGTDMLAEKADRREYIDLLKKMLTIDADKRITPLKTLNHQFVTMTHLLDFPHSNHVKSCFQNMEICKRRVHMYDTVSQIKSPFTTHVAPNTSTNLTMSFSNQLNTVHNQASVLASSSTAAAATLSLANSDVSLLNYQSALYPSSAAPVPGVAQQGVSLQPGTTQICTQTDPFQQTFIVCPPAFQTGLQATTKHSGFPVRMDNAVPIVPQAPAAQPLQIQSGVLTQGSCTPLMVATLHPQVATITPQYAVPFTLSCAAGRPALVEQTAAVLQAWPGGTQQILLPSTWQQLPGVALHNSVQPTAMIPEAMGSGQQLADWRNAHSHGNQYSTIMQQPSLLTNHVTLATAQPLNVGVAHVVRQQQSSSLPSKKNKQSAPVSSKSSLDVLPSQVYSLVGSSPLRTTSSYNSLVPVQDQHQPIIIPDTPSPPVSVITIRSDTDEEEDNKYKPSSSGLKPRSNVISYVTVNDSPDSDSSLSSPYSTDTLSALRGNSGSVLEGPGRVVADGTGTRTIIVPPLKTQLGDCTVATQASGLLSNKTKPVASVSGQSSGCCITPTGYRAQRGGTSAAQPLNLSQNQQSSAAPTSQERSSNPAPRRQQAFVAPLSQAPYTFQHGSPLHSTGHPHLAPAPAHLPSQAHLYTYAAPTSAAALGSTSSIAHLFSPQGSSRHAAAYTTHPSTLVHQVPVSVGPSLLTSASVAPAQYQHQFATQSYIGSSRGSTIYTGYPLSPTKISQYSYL

Chain of MAP3K11 (human) (Q16584 whole entry, looked up): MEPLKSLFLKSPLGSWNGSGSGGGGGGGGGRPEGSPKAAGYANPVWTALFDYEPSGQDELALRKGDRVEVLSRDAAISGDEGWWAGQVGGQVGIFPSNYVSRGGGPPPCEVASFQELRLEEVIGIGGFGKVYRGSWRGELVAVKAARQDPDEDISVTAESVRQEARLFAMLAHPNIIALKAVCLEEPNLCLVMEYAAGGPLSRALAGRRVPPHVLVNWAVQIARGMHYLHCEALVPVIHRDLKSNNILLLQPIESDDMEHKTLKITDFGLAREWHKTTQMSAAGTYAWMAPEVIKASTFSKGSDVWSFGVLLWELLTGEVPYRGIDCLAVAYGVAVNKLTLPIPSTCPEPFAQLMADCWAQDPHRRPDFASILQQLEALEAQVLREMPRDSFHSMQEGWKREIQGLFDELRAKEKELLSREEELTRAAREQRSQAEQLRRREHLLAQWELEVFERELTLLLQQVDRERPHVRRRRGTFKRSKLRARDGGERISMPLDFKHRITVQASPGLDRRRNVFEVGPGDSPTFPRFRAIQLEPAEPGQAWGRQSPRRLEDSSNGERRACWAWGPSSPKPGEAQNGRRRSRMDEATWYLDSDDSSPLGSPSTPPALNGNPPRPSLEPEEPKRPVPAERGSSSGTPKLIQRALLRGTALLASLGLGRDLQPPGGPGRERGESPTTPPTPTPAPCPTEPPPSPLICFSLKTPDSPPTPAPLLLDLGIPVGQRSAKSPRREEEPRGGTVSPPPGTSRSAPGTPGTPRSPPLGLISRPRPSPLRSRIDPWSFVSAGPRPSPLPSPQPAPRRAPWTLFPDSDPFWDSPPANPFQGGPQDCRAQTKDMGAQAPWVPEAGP
Chain of CDK14 (human) (O94921 whole entry, looked up): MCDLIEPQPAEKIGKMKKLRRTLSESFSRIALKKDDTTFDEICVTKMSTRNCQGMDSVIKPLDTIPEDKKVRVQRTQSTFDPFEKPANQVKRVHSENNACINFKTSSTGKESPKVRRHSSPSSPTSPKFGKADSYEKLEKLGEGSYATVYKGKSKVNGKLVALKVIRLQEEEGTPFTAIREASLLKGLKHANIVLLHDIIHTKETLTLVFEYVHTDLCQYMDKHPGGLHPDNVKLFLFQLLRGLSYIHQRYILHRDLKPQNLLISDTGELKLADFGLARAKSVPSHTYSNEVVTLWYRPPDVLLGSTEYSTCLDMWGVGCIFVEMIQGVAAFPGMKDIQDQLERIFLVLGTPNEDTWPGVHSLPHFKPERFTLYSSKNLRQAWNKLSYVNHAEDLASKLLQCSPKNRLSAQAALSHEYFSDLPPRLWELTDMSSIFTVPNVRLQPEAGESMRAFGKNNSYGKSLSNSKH
Chain of ERBB2 (human) (P04626 whole entry, looked up): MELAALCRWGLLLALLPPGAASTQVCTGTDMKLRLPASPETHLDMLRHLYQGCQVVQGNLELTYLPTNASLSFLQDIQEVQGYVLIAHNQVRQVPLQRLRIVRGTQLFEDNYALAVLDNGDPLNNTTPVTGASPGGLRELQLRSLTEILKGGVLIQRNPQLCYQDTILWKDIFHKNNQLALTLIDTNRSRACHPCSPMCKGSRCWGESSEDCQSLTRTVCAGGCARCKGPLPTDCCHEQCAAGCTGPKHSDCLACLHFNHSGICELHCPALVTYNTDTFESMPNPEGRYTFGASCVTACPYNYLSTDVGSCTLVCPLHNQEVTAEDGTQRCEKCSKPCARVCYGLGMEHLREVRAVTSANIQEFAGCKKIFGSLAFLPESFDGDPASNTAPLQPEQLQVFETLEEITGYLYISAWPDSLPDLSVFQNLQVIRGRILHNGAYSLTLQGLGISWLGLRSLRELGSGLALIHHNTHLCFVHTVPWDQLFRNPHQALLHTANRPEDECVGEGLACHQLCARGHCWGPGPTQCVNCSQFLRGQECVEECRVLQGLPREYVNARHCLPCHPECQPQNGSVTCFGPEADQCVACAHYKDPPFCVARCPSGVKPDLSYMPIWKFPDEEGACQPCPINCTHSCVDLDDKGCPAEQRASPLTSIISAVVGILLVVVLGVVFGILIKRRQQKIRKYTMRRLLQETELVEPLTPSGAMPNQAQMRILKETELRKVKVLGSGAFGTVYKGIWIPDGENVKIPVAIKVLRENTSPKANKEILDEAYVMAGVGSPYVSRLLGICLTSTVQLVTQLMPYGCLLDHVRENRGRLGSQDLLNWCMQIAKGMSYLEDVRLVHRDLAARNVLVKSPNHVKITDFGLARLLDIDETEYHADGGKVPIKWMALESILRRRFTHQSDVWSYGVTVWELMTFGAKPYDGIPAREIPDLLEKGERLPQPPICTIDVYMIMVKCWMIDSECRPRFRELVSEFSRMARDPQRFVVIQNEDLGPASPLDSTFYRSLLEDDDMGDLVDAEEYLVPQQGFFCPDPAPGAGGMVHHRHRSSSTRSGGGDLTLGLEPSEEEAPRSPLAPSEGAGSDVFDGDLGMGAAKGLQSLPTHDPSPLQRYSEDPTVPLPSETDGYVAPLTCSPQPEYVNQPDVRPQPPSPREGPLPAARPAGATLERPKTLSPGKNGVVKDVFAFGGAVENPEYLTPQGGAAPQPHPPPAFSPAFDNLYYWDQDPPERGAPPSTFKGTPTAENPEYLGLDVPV
Chain of CSNK1G1 (human) (Q9HCP0 whole entry, looked up): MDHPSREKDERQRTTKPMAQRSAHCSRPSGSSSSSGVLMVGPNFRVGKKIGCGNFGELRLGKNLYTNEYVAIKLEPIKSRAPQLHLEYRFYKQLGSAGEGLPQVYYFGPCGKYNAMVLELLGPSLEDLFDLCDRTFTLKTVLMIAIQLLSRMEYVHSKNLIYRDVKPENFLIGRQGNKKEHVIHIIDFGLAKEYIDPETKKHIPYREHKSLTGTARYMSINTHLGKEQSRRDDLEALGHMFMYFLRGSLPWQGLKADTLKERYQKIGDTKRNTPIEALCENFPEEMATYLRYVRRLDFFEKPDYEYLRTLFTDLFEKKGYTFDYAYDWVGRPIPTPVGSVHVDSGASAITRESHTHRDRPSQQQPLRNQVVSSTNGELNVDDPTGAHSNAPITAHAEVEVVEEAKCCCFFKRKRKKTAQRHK
Chain of NEK7 (human) (Q8TDX7 whole entry, looked up): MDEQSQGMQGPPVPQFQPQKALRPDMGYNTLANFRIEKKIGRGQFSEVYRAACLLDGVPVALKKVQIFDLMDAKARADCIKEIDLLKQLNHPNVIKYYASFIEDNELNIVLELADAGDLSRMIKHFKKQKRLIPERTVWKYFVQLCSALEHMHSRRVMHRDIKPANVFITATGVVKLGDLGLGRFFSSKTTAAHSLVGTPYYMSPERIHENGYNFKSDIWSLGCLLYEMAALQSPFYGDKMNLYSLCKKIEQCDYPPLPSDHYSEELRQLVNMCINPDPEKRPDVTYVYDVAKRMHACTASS
Chain of CDK17 (human) (Q00537 whole entry, looked up): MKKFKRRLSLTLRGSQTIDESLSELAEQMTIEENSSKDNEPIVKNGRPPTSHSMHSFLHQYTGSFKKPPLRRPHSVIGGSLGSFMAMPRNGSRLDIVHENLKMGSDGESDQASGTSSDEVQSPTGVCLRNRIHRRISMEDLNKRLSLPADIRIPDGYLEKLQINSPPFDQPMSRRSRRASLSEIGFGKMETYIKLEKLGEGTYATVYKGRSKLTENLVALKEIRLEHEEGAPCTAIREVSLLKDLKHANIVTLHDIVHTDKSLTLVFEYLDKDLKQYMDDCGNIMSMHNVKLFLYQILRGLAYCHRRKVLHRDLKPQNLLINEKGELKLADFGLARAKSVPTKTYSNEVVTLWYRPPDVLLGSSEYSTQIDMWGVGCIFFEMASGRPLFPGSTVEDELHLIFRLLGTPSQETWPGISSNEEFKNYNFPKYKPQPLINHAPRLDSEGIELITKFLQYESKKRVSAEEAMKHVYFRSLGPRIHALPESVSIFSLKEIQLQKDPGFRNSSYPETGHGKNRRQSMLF

Question: `CN(C)C/C=C/C(=O)Nc1cccc(C(=O)Nc2ccc(Nc3nccc(/C(C#N)=C4\Nc5ccccc5S4)n3)cc2)c1` was tested. Which kinase still bound, per cent of control (NEK1 (human)) did it give?
Answer: The kinase still bound, per cent of control was 100%.

Question: What about the kinase still bound, per cent of control (SGK3 (human)) of the same molecule?
Answer: The kinase still bound, per cent of control was 97%.

Question: What about the kinase still bound, per cent of control (CSK (human)) of the same molecule?
Answer: Its kinase still bound, per cent of control is 100%.

Question: And the kinase still bound, per cent of control (ACVRL1 (human))?
Answer: Its kinase still bound, per cent of control is 100%.

Question: What about the kinase still bound, per cent of control (ROCK1 (human)) of the same molecule?
Answer: Its kinase still bound, per cent of control is 100%.

Question: And the kinase still bound, per cent of control (DYRK1B (human))?
Answer: Its kinase still bound, per cent of control is 66%.

Question: And the kinase still bound, per cent of control (SRC (human))?
Answer: The kinase still bound, per cent of control was 100%.

Question: What about the kinase still bound, per cent of control (PKN1 (human)) of the same molecule?
Answer: The kinase still bound, per cent of control was 92%.

Question: And the kinase still bound, per cent of control (CSNK1E (human))?
Answer: Its kinase still bound, per cent of control is 41%.

Question: What about the kinase still bound, per cent of control (MAPK6 (human)) of the same molecule?
Answer: Its kinase still bound, per cent of control is 27%.

Question: And the kinase still bound, per cent of control (PRKX (human))?
Answer: Its kinase still bound, per cent of control is 82%.

Question: What about the kinase still bound, per cent of control (TGFBR1 (human)) of the same molecule?
Answer: Its kinase still bound, per cent of control is 97%.

Question: What about the kinase still bound, per cent of control (FYN (human)) of the same molecule?
Answer: The kinase still bound, per cent of control was 95%.

Question: What about the kinase still bound, per cent of control (MAP4K2 (human)) of the same molecule?
Answer: Its kinase still bound, per cent of control is 100%.

Question: And the kinase still bound, per cent of control (HCK (human))?
Answer: The kinase still bound, per cent of control was 100%.

Question: What about the kinase still bound, per cent of control (ERBB2 (human)) of the same molecule?
Answer: The kinase still bound, per cent of control was 100%.

Question: And the kinase still bound, per cent of control (GSK3B (human))?
Answer: Its kinase still bound, per cent of control is 93%.

Question: What about the kinase still bound, per cent of control (LYN (human)) of the same molecule?
Answer: The kinase still bound, per cent of control was 94%.

Question: And the kinase still bound, per cent of control (CAMK2A (human))?
Answer: Its kinase still bound, per cent of control is 100%.

Question: What about the kinase still bound, per cent of control [1] of the same molecule?
Answer: The kinase still bound, per cent of control was 80%.

Question: What about the kinase still bound, per cent of control (RPS6KB1 (human)) of the same molecule?
Answer: The kinase still bound, per cent of control was 100%.

Question: And the kinase still bound, per cent of control (BRSK1 (human))?
Answer: The kinase still bound, per cent of control was 90%.

Question: What about the kinase still bound, per cent of control (FRK (human)) of the same molecule?
Answer: Its kinase still bound, per cent of control is 100%.

Question: And the kinase still bound, per cent of control (OXSR1 (human))?
Answer: Its kinase still bound, per cent of control is 100%.

Question: What about the kinase still bound, per cent of control (CSNK1G1 (human)) of the same molecule?
Answer: The kinase still bound, per cent of control was 92%.

Question: And the kinase still bound, per cent of control (CAMK1D (human))?
Answer: Its kinase still bound, per cent of control is 100%.

Question: And the kinase still bound, per cent of control (PLK2 (human))?
Answer: Its kinase still bound, per cent of control is 65%.

Question: What about the kinase still bound, per cent of control (NEK4 (human)) of the same molecule?
Answer: The kinase still bound, per cent of control was 100%.

Question: What about the kinase still bound, per cent of control (CDK17 (human)) of the same molecule?
Answer: Its kinase still bound, per cent of control is 100%.

Question: And the kinase still bound, per cent of control (MAPK14 (human))?
Answer: The kinase still bound, per cent of control was 95%.

Question: What about the kinase still bound, per cent of control (CDK14 (human)) of the same molecule?
Answer: The kinase still bound, per cent of control was 100%.

Question: And the kinase still bound, per cent of control [2]?
Answer: The kinase still bound, per cent of control was 55%.

Question: And the kinase still bound, per cent of control (EPHA6 (human))?
Answer: The kinase still bound, per cent of control was 100%.

Question: And the kinase still bound, per cent of control (NEK11 (human))?
Answer: Its kinase still bound, per cent of control is 100%.

Question: What about the kinase still bound, per cent of control (MAP3K11 (human)) of the same molecule?
Answer: The kinase still bound, per cent of control was 100%.

Question: And the kinase still bound, per cent of control (TLK1 (human))?
Answer: Its kinase still bound, per cent of control is 100%.

Question: What about the kinase still bound, per cent of control (CRK2 (P.falciparum)) of the same molecule?
Answer: Its kinase still bound, per cent of control is 100%.

Question: And the kinase still bound, per cent of control (NEK7 (human))?
Answer: The kinase still bound, per cent of control was 100%.

Question: And the kinase still bound, per cent of control (EPHA3 (human))?
Answer: The kinase still bound, per cent of control was 100%.

Question: And the kinase still bound, per cent of control [3]?
Answer: The kinase still bound, per cent of control was 81%.

Question: And the kinase still bound, per cent of control (MAP2K1 (human))?
Answer: The kinase still bound, per cent of control was 100%.

Question: What about the kinase still bound, per cent of control (YSK4 (human)) of the same molecule?
Answer: Its kinase still bound, per cent of control is 59%.

Question: And the kinase still bound, per cent of control (HIPK1 (human))?
Answer: The kinase still bound, per cent of control was 100%.
